Experimental data taken from ChEMBL document CHEMBL2074279, “Pharmacokinetics of 5 (and 6)-carboxy-2',7'-dichlorofluorescein and its diacetate promoiety in the liver” (J Pharmacol Exp Ther, 2003).

Legend:
[1] = biological target: ATP-binding cassette sub-family C member 2 (Rattus norvegicus, UniProt Q63120); experiment: TP_TRANSPORTER: inhibition of CDF uptake (CDF: 10 uM, Probenecid: 260 uM) in Mrp2-expressing Sf9 cells; type: functional; details: sf9, 260 µM
[2] = biological target: ATP-binding cassette sub-family C member 3 (Rattus norvegicus, UniProt O88563); experiment: TP_TRANSPORTER: inhibition of CDF uptake (CDF: 10 uM, Probenecid: 260 uM) in Mrp3-expressing Sf9 cells; type: functional; details: sf9, 260 µM
ATP-binding cassette sub-family C member 3, sequence (O88563 whole entry): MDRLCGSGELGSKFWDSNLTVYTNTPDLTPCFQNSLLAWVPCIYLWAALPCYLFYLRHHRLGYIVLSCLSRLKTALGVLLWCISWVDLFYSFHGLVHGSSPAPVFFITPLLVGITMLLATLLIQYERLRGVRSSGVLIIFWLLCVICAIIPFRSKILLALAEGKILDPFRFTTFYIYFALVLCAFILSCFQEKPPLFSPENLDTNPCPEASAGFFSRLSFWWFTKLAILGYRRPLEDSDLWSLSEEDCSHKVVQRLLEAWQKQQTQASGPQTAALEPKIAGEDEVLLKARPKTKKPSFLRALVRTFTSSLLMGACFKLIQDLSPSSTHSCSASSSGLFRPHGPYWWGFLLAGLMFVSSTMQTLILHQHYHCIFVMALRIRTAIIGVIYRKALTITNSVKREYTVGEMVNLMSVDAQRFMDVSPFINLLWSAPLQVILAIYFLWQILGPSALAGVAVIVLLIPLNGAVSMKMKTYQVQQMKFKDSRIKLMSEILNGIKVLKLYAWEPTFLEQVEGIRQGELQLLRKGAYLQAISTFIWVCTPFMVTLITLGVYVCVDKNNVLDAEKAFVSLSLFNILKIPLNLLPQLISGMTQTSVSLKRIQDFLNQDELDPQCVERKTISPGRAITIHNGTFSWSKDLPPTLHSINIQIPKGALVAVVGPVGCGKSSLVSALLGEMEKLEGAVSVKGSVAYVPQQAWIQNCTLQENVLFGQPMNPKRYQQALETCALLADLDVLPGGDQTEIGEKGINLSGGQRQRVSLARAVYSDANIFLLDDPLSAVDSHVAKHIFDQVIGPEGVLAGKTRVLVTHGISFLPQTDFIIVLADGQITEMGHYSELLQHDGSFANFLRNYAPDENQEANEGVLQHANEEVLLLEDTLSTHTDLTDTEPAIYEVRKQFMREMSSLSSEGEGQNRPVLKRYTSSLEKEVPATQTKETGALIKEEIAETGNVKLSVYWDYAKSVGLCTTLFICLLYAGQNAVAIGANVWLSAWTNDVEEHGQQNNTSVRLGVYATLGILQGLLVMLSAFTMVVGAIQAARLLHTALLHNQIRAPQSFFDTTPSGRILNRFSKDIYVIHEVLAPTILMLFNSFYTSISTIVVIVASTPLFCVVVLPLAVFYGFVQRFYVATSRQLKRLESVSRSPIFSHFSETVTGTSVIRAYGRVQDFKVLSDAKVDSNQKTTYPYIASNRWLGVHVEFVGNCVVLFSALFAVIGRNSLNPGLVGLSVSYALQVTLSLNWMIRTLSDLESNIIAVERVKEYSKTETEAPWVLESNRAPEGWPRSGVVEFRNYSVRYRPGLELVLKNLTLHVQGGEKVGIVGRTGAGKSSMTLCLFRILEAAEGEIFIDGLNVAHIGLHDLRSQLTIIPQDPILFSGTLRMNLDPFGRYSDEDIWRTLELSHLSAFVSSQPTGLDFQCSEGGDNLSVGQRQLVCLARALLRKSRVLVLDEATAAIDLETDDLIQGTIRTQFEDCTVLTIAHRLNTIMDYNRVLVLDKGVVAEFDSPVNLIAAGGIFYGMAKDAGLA

ATP-binding cassette sub-family C member 2, sequence (Q63120 whole entry): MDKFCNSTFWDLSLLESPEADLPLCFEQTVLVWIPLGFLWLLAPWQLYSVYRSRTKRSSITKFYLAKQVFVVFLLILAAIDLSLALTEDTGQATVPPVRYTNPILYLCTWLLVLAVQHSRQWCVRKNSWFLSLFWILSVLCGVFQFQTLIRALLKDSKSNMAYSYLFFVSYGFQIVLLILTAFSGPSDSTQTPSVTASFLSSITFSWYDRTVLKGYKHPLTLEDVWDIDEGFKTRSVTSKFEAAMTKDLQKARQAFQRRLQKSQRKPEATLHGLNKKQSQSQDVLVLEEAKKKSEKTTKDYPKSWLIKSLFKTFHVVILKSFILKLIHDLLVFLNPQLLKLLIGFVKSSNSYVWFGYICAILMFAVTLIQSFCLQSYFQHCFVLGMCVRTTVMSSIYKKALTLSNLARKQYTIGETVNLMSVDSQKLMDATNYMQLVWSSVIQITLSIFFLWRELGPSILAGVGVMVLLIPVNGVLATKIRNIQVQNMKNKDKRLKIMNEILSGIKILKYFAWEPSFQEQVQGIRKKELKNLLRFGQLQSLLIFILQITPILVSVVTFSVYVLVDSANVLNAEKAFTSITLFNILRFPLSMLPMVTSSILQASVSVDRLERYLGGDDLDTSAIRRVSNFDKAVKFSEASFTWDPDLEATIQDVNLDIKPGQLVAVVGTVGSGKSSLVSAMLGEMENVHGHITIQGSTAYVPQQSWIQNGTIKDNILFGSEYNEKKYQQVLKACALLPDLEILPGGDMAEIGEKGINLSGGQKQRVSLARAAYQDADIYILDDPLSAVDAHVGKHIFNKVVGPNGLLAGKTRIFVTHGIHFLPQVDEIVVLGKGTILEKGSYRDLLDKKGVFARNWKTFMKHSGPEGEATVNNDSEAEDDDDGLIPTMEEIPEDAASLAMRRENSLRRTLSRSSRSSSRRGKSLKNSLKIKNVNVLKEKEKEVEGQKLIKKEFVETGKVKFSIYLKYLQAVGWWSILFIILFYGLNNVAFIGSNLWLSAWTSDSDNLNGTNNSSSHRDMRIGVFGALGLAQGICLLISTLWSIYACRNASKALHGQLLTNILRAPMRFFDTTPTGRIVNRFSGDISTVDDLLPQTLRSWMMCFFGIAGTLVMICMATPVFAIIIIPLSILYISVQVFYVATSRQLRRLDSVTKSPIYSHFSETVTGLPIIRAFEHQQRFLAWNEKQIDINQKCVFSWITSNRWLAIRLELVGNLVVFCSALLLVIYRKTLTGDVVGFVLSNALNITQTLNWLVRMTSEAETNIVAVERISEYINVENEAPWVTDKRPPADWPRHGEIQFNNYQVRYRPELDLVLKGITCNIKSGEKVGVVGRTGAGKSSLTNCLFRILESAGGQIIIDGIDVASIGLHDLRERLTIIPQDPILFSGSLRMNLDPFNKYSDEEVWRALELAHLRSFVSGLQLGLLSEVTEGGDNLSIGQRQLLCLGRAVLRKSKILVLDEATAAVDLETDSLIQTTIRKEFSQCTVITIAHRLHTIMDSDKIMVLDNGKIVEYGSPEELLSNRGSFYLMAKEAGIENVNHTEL

For `CCCN(CCC)S(=O)(=O)c1ccc(C(=O)O)cc1` [PROBENECID], the Activity [1] was “inhibitor [(at a rough estimate) 40 % of control]” and the Activity [2] was “inhibitor [(at a rough estimate) 35 % of control]”.
